Entries after “also recorded” stand apart in the source; their conditions may differ. Read-outs that look alike come from different tables or passages of the source.
What was measured:
[1] = rabbits, 3 rabbits per group
Procedure: The test was conducted in an authorised laboratory, ITEST plus s.r.o., Bilé Vchýnice 10, 533 13 Vápno u Prelouce, Czech Republic, according to guide-lines CL 2005.
Rabbits (New Zeeland albino, 4-6 kg, 3 animals per group) were used for testing.
Liposomal preparations of muramyl glycopeptide derivatives were administered s.c. (100 nmol/kg). Empty liposomes were used as negative control and the liposomal as well as the free form of muramyl dipeptide (MDP) (25 μg/kg, corresponding to 50.7 nmol/kg) served as positive control. Temperature was measured in 1, 2, 3, 4,6 and 24 hour intervals.
Empty liposomes were used as negative control; and liposomal as well as free muramyl dipeptide (MDP) (50.7 nmol/kg) served as positive control. B30-norAbu-MDP (MT01, structure on page 5) served as additional control. Temperature was measured in 1, 2, 3, 4, 6 and 24 h intervals. The preparation passed the test if the Sum of ΔTmax remained below 1.1° C. (3 rabbits per group)

[2] = tested on: bone-marrow cells; experiment: Restoration of bone-marrow proliferation in azathioprine-suppressed mice; format: in vivo, CBA/J mice; parameters: key: +: restoration under the level of intact bone-marrow response; ++: restoration above the level of intact bone-marrow response; conditions: two i.v. doses of 200 nmol 30 and 6 h before oral azathioprine 5 mg per mouse; bone marrow 66 h after
Procedure: CBA/J male mice 8 weeks old, weighing 18-20 g were administered two i.v. doses of 200 nmol test substance per mouse 30 and 6 h prior to oral application of azathioprine (Imuran Wellcome, 5 mg per mouse in a volume of 0.5 ml distilled water). Bone marrow (lavage of femurs) was sampled 66 h after the application of azathioprine. Pooled suspensions of bone-marrow cells from 3 mice were cultivated in RPMI-1640 medium with 5% of fetal bovine serum (both from Sigma) at a concentration of 2×10^5 cells/0.2 ml either without mitogen (spontaneous proliferation) or in the presence of T (phytohemagglutinin, PHA Murex, 50 μg/ml; concanavalin A, Con A Sigma, 1, 2.5 or 5 μg/ml) or B (lipopolysaccharide, LPS E. coli O55 Difco, 5 μg/ml) mitogens for 48 h at 37° C. in 5% CO2. Proliferative activity was measured by incorporation of 3H-thymidine (1 μCi/well) and expressed as stimulation index SI=mean cpm cultures with mitogen/mean cpm controls without mitogen. Statistical significance of stimulation was evaluated by the Student's t test.

[3] = tested on: myelin basic protein induced EAE; experiment: Experimental allergic encephalomyelitis (EAE), Th1 adjuvant activity; format: in vivo, guinea pigs; conditions: for Positive animals (%) (incidence of EAE): 50 μg myelin basic protein + 1 mg test compound in FIA, footpads, up to day 21, FCA positive control
[4] = tested on: GM-CFC progenitors in bone marrow; experiment: GM-CFC recovery, test compounds after sub-lethal irradiation; format: in vivo, ICR/CD-1 mice; conditions: s.c. 100 nmol 24 h after 6 Gy; FIG. 36
Procedure: (§1) Institite of Cancer Research (ICR/CD-1) mice (female, age of 3 months, 3-4 per group) were stimulated by s.c. administration of test compounds (volume of 200 μl, 100 nmol per dose) 24 h before sublethal γ-irradiation (6 Gy, ^60Co γray source Chisostat, Chirana Ltd., Czech Republic, at a dose of 0.285 Gy/min.). Mice were sacrified at day 13 and recovery of GM-CFC in femour was assayed by counting of colonies (CFC) formed after cultivation in medium. Non-irradiated mice were used as control for normal GM-CFC count in femour. PBS and empty liposomes were used as controls for spontaneous recovery. Liposomal MDP was used as reference standard.
(§2) The following parameters of hemopoiesis were evaluated: • a) Blood leukocyte counts and bone marrow cellularity. Blood leukocytes (samples of blood drawn from an incision of the tail vein) and nucleated cell elements of the femoral bone marrow (femoral diaphyses flushed with saline) were estimated by means of Coulter Counter (Model ZN, Coulter Electronics). • b) Colony-forming cells in spleen. Endogenous spleen colony-forming units (E-CFUs) were measured on day 9 post the whole-body irradiation with 6.5 Gy (5 mice per group) according to Till and McCulloch. • c) GM-CFC progenitors in bone marrow. Femoral bone marrow cells were obtained from mice by flushing the femour with sterile IMDM medium. Harvested cells were calculated and diluted to 1.5×10^5 cells/ml and plated in triplicate in a semisolid environment created by plasma clot (Iscovess modification of Dulbecco's medium, 20% of fetal calf serum, 10% of colony-stimulating factor, 10% of citrate plasma, and CaCl2 1.5 mg/ml). The cultures were incubated for 7 days at 37° C. in 5% CO2. Colonies of at least 50 cells were scored at 40× magnification.
The method is exactly as described above except that the test compounds (volume of 200 μl, 100 nmol per dose) were administered 24 h after sublethal γ-irradiation (6 Gy).

[5] = tested on: Salmonella enteritidis; experiment: Stimulation of innate immunity against Salmonella Enteritidis; conditions: liposomal, 20 nmol per dose p.o. 72 and 24 h before infection (LD50); 5 mice
[6] = tested on: Friend leukemia virus (FLV); experiment: Friend leukemia virus infection: survival, TER-119+ cells, spleen; conditions: for clonal expansion of TER-119+ erythroleukaemia cells in spleen / spleen size (weight): day 16; for clonal expansion of TER-119+ erythroleukaemia cells in spleen: FIG. 24; for spleen size (weight): FIG. 25
[7] = tested on: GM-CFC progenitors in bone marrow; experiment: GM-CFC recovery, test compounds before sub-lethal irradiation; format: in vivo, ICR/CD-1 mice; conditions: s.c. 100 nmol 24 h before 6 Gy, day 13; FIGS. 33-35
Procedure: as §1, §2
Statistical significance between individual experimental groups of mice in hemopoietic parameters was calculated by one-way analysis of variance. The Newman-Keuls test for comparison of all pairs of columns and the Dunnett test for comparison of all columns with the control column were used in the analysis.

[8] = tested on: NK sensitive K562 cell line; experiment: NK cell cytotoxicity of human PBMC, 51Cr-release against K562; format: cell-based; conditions: range 0.1 μM-100 μM; FIG. 28
Procedure: Ex vivo effects of test compounds on NK cells were evaluated on human peripheral blood mononuclear cells (PBMC). The NK cell cytotoxicity of healthy donors in the presence or absence of test compounds was measured in standard 4 hrs ^51Cr-release assay against NK sensitive K562 cell line in effector (PBMC) to target (K562) ratio 16:1. Test compounds were added at a concentration of 10^−7 mol/ml.
Testing of compounds 23, 24, 32, 33, 40 and 41 for their capacity to induce cell-mediated cytotoxicity of human eripheral blood mononuclear cells (PBMCs) is shown in FIGS. 27 and 28. All donors were healthy. […] The cytotoxicity of untreated controls (30.5%) was renormalized to 100%.

[9] = tested on: NK-sensitive YAC1 target cells; experiment: NK cell-mediated cytotoxicity of spleen mononuclear cells, 51Cr-release against YAC1; conditions: FLV-inoculated mice, day 16, 18 h incubation with YAC1; FIG. 26
[10] = tested on: r-hsp90 (Candida albicans hsp90) specific IgG antibodies; experiment: Proteoliposome vaccine against C. albicans hsp90: antibody (humoral) response, ELISA; format: in vivo, BALB/c mice; conditions: Experiment 12.2; liposomal compound (5%) + Ni-HSP90, boost day 14; FIG. 13
Procedure: Proteoliposomes were prepared by coupling recombinant hsp90 antigen (r-hsp90, 6×HISTag) via a metal chelating lipid to liposomes containing muramyl glycopeptide derivatives as adjuvant component. BALB/c […] mice 4 to 5 weeks old (female 20±2 g, 5 animal per group) were immunized by the intradermal route either with 20 μg of free or liposomal r-hsp90 (volume of 60 μl) either with or without L18-norAbu-MDP and boosted 21 days later by the same composition of experimental vaccine. FCA was used as positive control r-hsp90. Liposomal vaccine composition 20 μg of rHSP90 antigen, 5% metallochelating lipid, 5% particular MT analogue, 90% phospolipids.
Blood samples were collected from the tail vein into heparinised capillary PCV tubes. After centrifugation, the upper part of the tube, containing […] blood serum, was cut off, thrown into […] diluting solution and thoroughly shaken. Thus, a basic dilution of 1:33 was obtained. The pre-diluted sera were kept at −20° C. Blood samples were collected before the first immunization, 2 weeks thereafter and subsequently at weekly intervals up to the 4th week after the second immunisation. Specific IgG antibodies in blood serum samples were determined by the standard indirect ELISA procedure. The data obtained were processed statistically using the non-parametric Mann-Whitney U-test.
Proteoliposomes with muramyl glycopeptide derivatives were prepared as described above, but the boost was carried out already after 14 days. The liposomal vaccine composition was as for Experiment Set 1: 20 μg of rHSP90 antigen, 5% metallochelating lipid, 5% particular MT analogue, 90% phospolipids.
Controls: Aluminum hydroxide (AlOH) and Freund complete adjuvans (FCA) were used as positive controls. PBS with empty liposomes was used as negative control (control). Humoral response was tested at day 14 after vaccination (post priming) and at day 20 after vaccination (post booster). Antibody titres were wer assayed by ELISA.

[11] = liposomal preparations s.c. 100 nmol/kg, passes if below 1.1° C.

Compound	Restoration of BM Proliferation in Immunosuppressive Therapy [2]	Positive animals (%) (incidence of EAE) [3]	Day 6 Intest.: clear/infected/dead [5]	Day 6 Liver: clear/infected/dead [5]	Day 6 Lungs: clear/infected/dead [5]	Day 6 Spleen: clear/infected/dead [5]	Day 12 Intest.: clear/infected/dead [5]	Day 12 Liver: clear/infected/dead [5]	Day 12 Lungs: clear/infected/dead [5]	Day 12 Spleen: clear/infected/dead [5]	+ΔTmax (Sum of ΔTmax) [1, 11] [°C]	clonal expansion of TER-119+ erythroleukaemia cells in spleen [6]	spleen size (weight) [6]	dose response of NK cell activity [8]	also measured
CC(=O)N[C@@H]1[C@@H](O[C@H](C)C(=O)N[C@@H](C)C(=O)N[C@H](CCC(=O)O)C(N)=O)[C@H](O)[C@@H](CO)O[C@H]1O [MDP, muramyldipeptide]	+	58	–	–	–	–	–	–	–	–	–	–	–	–	+ΔTmax (Sum of ΔTmax) ([1]; MDP positive control 25 μg/kg (50.7 nmol/kg), liposomal or free): 2.9 °C
CCCCCCCCCCCCCCCCCC(=O)NCCCC[C@H](NC(=O)CC[C@@H](NC(=O)[C@H](CC)NC(=O)CO[C@H]1[C@H](O[C@@H]2O[C@H](CO)[C@@H](O)[C@H](O)[C@H]2NC(C)=O)[C@@H](CO)OC(O)[C@@H]1NC(C)=O)C(N)=O)C(=O)O (stereo partly drawn) [Compound 40, N-[2-O-(2-Acetamido-2-deoxy-βD-glucopyranosyl-(1→4)-2-acetamido-2,3-dideoxy-D-glucopyranose-3-yl)-glycoloyl]-L-α-aminobutanoyl-D-isoglutaminyl-L-lysine(stearoyl)]	–	–	4/1/0	4/1/0	4/1/0	5/0/0	0/2/3	1/1/3	1/1/3	1/1/3	0.6	dose-dependent, positive effect	spleen size slightly lower than the control	negative dose response	GM-CFC progenitor cells in bone marrow [4]: strongest performers; also recorded: strongest effect; also recorded: one of the best effects; GM-CFC progenitor cells in bone marrow [7]: acceptable performance; NK cell activity (cell-mediated cytotoxicity of SMCs) [9]: stimulate NK cell functional activity; antibody response to r-hsp90 proteoliposomes [10]: strong and comparable to AlOH
CCC(NC(=O)COC1C(O)C(CO)OC(O)C1NC(C)=O)C(=O)NC(CCC(=O)O)C(N)=O (stereo not drawn) [norAbu-MDP]	+	–	–	–	–	–	–	–	–	–	–	–	–	–	–
CC[C@H](NC(=O)CO[C@H]1[C@H](O[C@@H]2O[C@H](CO)[C@@H](O)[C@H](O)[C@H]2NC(C)=O)[C@@H](CO)OC(O)[C@@H]1NC(C)=O)C(=O)N[C@H](CCC(=O)O)C(N)=O (stereo partly drawn) [norAbu-GMDP]	++	90	–	–	–	–	–	–	–	–	–	–	–	–	Th1 stimulation (EAE) ([3]; guinea pigs sensitized with bovine MBP in IFA + compound, FIG. 31): superior to MDP and GMDP as Th1 adjuvants
CC(=O)N[C@H]1[C@H](O[C@H]2[C@H](O[C@H](C)C(=O)N[C@@H](C)C(=O)N[C@H](CCC(=O)O)C(N)=O)[C@@H](NC(C)=O)C(O)O[C@@H]2CO)O[C@H](CO)[C@@H](O)[C@@H]1O (stereo partly drawn) [GMDP, glucosaminylmuramyl dipeptide]	++	65	–	–	–	–	–	–	–	–	–	–	–	–	–
CCCCCCCCCCCCCCC(CCCCCCCCCCCCCC)C(=O)NCCCC[C@H](NC(=O)CC[C@@H](NC(=O)[C@H](CC)NC(=O)CO[C@H]1[C@H](O[C@@H]2O[C@H](CO)[C@@H](O)[C@H](O)[C@H]2NC(C)=O)[C@@H](CO)OC(O)[C@@H]1NC(C)=O)C(N)=O)C(=O)O (stereo partly drawn) [Compound 41, N-[2-O-(2-Acetamido-2-deoxy-β-D-glucopyranosyl-(1→4)-2-acetamido-2,3-dideoxy-D-glucopyranose-3-yl)-glycoloyl]-L-α-aminobutanoyl-D-isoglutaminyl-L-lysine(2-tetradecylhexadecanoyl)]	–	–	2/3/0	2/3/0	4/1/0	2/3/0	1/2/2	2/1/2	2/1/2	2/1/2	0.8	pronounced opposite effect	increased spleen size	negative dose response	survival, late phase (days 55 and 59), long-term ([6]; 10 μmol i.p., non-liposomal, control 0%, FIG. 23): ensure long-term survival; survival, early phase (day 43) ([6]; 10 μmol i.p., non-liposomal, saline control 82%, FIG. 23): survival rate worse than control

Reference: patent US8653049B2, “Normuramyl glycopeptide compounds” (priority 2008, dated 2014)
